Biological target: T1, Nav1.7 (or SCN9A) channel; HEK cells stably transfected with hSCN9A (Homo sapiens, UniProt Q15858)
T1 construct: expressed in transfected cells
Test: Nav1.7 block, PatchXpress 7000 automated whole-cell voltage clamp, estimated IC50 (EIC50)
Format: cell-based
Conditions: not given

T1 sequence (Q15858 whole entry): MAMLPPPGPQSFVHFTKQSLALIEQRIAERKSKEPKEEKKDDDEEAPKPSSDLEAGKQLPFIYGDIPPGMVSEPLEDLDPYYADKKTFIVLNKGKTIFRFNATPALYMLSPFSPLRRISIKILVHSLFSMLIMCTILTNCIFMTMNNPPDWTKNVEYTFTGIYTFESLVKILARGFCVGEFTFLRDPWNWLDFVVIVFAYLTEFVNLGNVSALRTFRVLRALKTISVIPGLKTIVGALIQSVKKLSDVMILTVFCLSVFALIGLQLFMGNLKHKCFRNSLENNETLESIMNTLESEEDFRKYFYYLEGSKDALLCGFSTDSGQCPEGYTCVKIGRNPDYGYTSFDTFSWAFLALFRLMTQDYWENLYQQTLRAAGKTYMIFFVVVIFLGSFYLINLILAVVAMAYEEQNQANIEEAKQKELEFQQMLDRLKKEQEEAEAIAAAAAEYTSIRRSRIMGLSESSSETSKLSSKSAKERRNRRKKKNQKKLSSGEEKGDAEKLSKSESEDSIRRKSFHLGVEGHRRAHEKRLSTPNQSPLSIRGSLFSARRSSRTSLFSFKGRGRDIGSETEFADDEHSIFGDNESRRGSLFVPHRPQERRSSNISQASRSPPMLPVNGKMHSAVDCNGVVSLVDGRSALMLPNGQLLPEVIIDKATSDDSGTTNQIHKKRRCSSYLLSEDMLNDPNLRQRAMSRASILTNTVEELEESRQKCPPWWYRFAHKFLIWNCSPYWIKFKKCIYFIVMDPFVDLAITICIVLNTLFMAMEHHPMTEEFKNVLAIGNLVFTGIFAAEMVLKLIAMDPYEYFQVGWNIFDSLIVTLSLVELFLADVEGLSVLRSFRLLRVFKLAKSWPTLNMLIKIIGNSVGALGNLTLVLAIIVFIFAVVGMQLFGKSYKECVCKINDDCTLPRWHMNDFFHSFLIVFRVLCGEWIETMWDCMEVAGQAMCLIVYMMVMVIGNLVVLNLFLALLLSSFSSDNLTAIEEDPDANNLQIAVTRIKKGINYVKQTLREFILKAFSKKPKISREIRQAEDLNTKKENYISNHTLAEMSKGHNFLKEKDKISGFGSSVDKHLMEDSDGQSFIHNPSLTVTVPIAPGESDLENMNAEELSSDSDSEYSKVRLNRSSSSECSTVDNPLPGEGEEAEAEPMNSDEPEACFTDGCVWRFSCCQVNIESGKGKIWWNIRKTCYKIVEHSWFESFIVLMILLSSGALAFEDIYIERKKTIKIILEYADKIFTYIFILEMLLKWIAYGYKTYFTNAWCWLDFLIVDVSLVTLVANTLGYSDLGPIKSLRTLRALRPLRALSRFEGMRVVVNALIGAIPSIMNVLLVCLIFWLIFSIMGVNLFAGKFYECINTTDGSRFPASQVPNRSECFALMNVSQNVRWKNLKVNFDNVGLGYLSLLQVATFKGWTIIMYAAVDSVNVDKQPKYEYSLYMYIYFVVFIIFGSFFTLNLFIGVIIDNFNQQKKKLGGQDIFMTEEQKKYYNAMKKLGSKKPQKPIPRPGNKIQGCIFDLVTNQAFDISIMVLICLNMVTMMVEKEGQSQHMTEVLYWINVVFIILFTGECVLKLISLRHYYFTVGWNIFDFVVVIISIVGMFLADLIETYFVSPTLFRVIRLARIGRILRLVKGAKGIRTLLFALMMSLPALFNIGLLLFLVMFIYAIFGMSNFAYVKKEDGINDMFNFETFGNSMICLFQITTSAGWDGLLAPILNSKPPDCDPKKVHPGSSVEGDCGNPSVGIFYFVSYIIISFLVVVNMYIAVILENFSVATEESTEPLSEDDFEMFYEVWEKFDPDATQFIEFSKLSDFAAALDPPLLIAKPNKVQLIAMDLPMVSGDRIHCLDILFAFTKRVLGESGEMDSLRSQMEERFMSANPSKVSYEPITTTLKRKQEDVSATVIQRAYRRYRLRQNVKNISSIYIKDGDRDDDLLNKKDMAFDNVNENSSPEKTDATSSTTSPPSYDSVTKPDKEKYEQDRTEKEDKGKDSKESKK

| Compound | IC50 |
| --- | --- |
| O=S(=O)(Nc1ncns1)c1cc(F)c(Oc2ccc(C(F)(F)F)cc2C2=CCNCC2)cc1F [Example 733, 2,5-difluoro-4-[2-(1,2,3,6-tetrahydropyridin-4-yl)-4-(trifluoromethyl)phenoxy]-N-1,2,4-thiadiazol-5-ylbenzenesulfonamide] | 10 nM |

Same assay, conditions: PatchXpress platform; hSCN9A HEK cells held at V1/2 of inactivation; estimated IC50

| Compound | IC50 |
| --- | --- |
| COc1ccc(-c2cc(F)ccc2Oc2ccc(S(=O)(=O)Nc3nccs3)cc2C#N)cn1 [Example 151, 3-cyano-4-[4-fluoro-2-(6-methoxypyridin-3-yl)phenoxy]-N-1,3-thiazol-2-ylbenzenesulfonamide] | 50 nM |
| Cn1nccc1-c1cc(F)ccc1Oc1ccc(S(=O)(=O)Nc2nccs2)cc1C#N [Example 169, 3-cyano-4-(4-fluoro-2-(1-methyl-1H-pyrazol-5-yl)phenoxy)-N-(thiazol-2-yl)benzenesulfonamide] | 50 nM |
| COc1ccc(-c2ccccc2Oc2ccc(S(=O)(=O)Nc3ncns3)cc2C#N)cc1 [Example 51, 3-cyano-4-[(4′-methoxybiphenyl-2-yl)oxy]-N-1,2,4-thiadiazol-5-ylbenzenesulfonamide] | 330 nM |
| Cc1noc(C)c1Cc1ccc(Oc2ccc(S(=O)(=O)Nc3nccs3)cc2F)cc1 [Example 122, 4-{4-[(3,5-dimethylisoxazol-4-yl)methyl]phenoxy}-3-fluoro-N-1,3-thiazol-2-ylbenzenesulfonamide] | 4540 nM |
| 3-fluoro-4-(4-methyl-2-(1-methyl-1H-pyrazol-3-yl)phenoxy)-N-(thiazol-2-yl)benzenesulfonamide [Example 215] | 6440 nM |
| N#Cc1cc(S(=O)(=O)Nc2ncns2)ccc1Oc1cc(Cc2ccc(Cl)cc2)nn1CC(N)=O [Example 93, 2-[3-(4-chlorobenzyl)-5-{2-cyano-4-[(1,2,4-thiadiazol-5-ylamino)sulfonyl]phenoxy}-1H-pyrazol-1-yl]acetamide] | 1570 nM |
| CC(C)Oc1ccc(-c2ccccc2Oc2ccc(S(=O)(=O)Nc3ncns3)cc2C#N)cc1 [Example 54, 3-cyano-4-[(4′-isopropoxybiphenyl-2-yl)oxy]-N-1,2,4-thiadiazol-5-ylbenzenesulfonamide] | 260 nM |
| NC(=O)c1cc(S(=O)(=O)Nc2nccs2)ccc1Oc1ccccc1-c1ccccc1 [Example 250, 2-(biphenyl-2-yloxy)-5-(N-thiazol-2-ylsulfamoyl)benzamide] | 1850 nM |

Same assay, conditions: estimated IC50; hSCN9A HEK cells, PatchXpress platform; Examples 283-814

| Compound | IC50 |
| --- | --- |
| COCc1cc(Oc2ccc(S(=O)(=O)Nc3nccs3)cc2C#N)ccc1-n1cc(Cl)cn1 [Example 496, 4-[4-(4-chloro-1H-pyrazol-1-yl)-3-(methoxymethyl)phenoxy]-3-cyano-N-1,3-thiazol-2-ylbenzenesulfonamide] | 3800 nM |
| O=S(=O)(Nc1ccc(F)cn1)c1cc(F)c(Oc2ccc(C(F)(F)F)cc2C2CCNCC2)cc1F [Example 666, 2,5-Difluoro-N-(5-fluoropyridin-2-yl)-4-[2-piperidin-4-yl-4-(trifluoromethyl)phenoxy]benzenesulfonamide] | 270 nM |
| Nc1cccc(-c2cc(F)ccc2Oc2cc(F)c(S(=O)(=O)Nc3ncns3)cc2Cl)n1 [Example 617, 4-[2-(6-aminopyridin-2-yl)-4-fluorophenoxy]-5-chloro-2-fluoro-N-1,2,4-thiadiazol-5-ylbenzenesulfonamide] | 30 nM |
| COc1cc(-c2cc(F)ccc2Oc2cc(F)c(S(=O)(=O)Nc3cscn3)cc2Cl)n(C)n1 [Example 688, 5-Chloro-2-fluoro-4-[4-fluoro-2-(3-methoxy-1-methyl-1H-pyrazol-5-yl)-phenoxy]-N-1,3-thiazol-4-yl-benzenesulfonamide] | 5100 nM |
| Cn1nc(C(F)(F)F)cc1-c1ccc(Oc2cc(F)c(S(=O)(=O)Nc3nccs3)cc2Cl)c(C#N)c1 [Example 296, 5-chloro-4-{2-cyano-4-[1-methyl-3-(trifluoromethyl)-1H-pyrazol-5-yl]phenoxy}-2-fluoro-N-1,3-thiazol-2-ylbenzenesulfonamide] | 25 nM |
| N#Cc1cc(S(=O)(=O)Nc2cnc(Cl)nc2)ccc1Oc1ccccc1-c1ccccc1 [Example 426, 4-(biphenyl-2-yloxy)-N-(2-chloropyrimidin-5-yl)-3-cyanobenzenesulfonamide] | 36000 nM |
| COCc1cccc(-c2cc(Oc3ccc(S(=O)(=O)Nc4ncc(F)s4)cc3C#N)ccc2Cl)c1 [Example 532, 4-{[6-chloro-3′-(methoxymethyl)biphenyl-3-yl]oxy}-3-cyano-N-(5-fluoro-1,3-thiazol-2-yl)benzenesulfonamide] | 2900 nM |
| Nc1cc(-c2cc(Cl)ccc2Oc2cc(F)c(S(=O)(=O)Nc3ccncn3)cc2Cl)ccn1 [Example 812, 4-[2-(2-aminopyridin-4-yl)-4-chlorophenoxy]-5-chloro-2-fluoro-N-pyrimidin-4-ylbenzenesulfonamide] | 5.1 nM |
| COc1ccc(-c2ccnn2C)c(Oc2ccc(S(=O)(=O)Nc3nccs3)cc2C#N)c1 [Example 541, 3-cyano-4-[5-methoxy-2-(1-methyl-1H-pyrazol-5-yl)phenoxy]-N-1,3-thiazol-2-ylbenzenesulfonamide] | 140 nM |
| Cc1nnc(NS(=O)(=O)c2ccc(Oc3ccc(Cl)cc3-c3ccnn3C)c(F)c2)s1 [Example 776, 4-[4-chloro-2-(1-methyl-1H-pyrazol-5-yl)phenoxy]-3-fluoro-N-(5-methyl-1,3,4-thiadiazol-2-yl)benzenesulfonamide] | 2500 nM |
| Cn1nc(C(F)(F)F)cc1-c1cc(Cl)ccc1Oc1ccc(S(=O)(=O)Nc2cscn2)cc1C#N [Example 395, 4-{4-chloro-2-[1-methyl-3-(trifluoromethyl)-1H-pyrazol-5-yl]phenoxy}-3-cyano-N-1,3-thiazol-4-ylbenzenesulfonamide] | 1800 nM |
| N#Cc1cc(S(=O)(=O)Nc2nccs2)ccc1Oc1ccc(Cl)cc1CN1CCC(O)C1 (centres unmarked) [Example 357, 4-{4-chloro-2-[(3-hydroxypyrrolidin-1-yl)methyl]phenoxy}-3-cyano-N-1,3-thiazol-2-ylbenzenesulfonamide] | 390 nM |

Same assay, conditions: estimated IC50; hSCN9A HEK cells, PatchXpress platform; Examples 815-1040

| Compound | IC50 |
| --- | --- |
| Cn1nccc1-c1cc(Cl)ccc1Oc1ncc(S(=O)(=O)Nc2ncns2)cc1Cl [Example 927, 5-chloro-6-[4-chloro-2-(1-methyl-1H-pyrazol-5-yl)phenoxy]-N-1,2,4-thiadiazol-5-ylpyridine-3-sulfonamide] | 120 nM |
| O=S(=O)(Nc1ncns1)c1cc(F)c(Oc2ccc(F)cc2-c2ccnnc2)cc1F [Example 931, 2,5-difluoro-4-(4-fluoro-2-pyridazin-4-ylphenoxy)-N-1,2,4-thiadiazol-5-ylbenzenesulfonamide] | 140 nM |
| Nc1cc(-c2cc(Cl)ccc2Oc2ccc(S(=O)(=O)Nc3ccncn3)cc2Cl)ccn1 [Example 944, 4-[2-(2-aminopyridin-4-yl)-4-chlorophenoxy]-3-chloro-N-pyrimidin-4-ylbenzenesulfonamide] | 31 nM |
| O=S(=O)(Nc1nncs1)c1cc(Cl)c(Oc2cc(C(F)(F)F)ccc2-c2ccnnc2)cc1F [Example 939, 5-chloro-2-fluoro-4-[2-pyridazin-4-yl-5-(trifluoromethyl)phenoxy]-N-1,3,4-thiadiazol-2-ylbenzenesulfonamide] | 48 nM |
| O=S(=O)(Nc1nncs1)c1ccc(Oc2ccc(OC(F)(F)F)cc2-c2ccnnc2)c(Cl)c1 [Example 942, 3-chloro-4-[2-pyridazin-4-yl-4-(trifluoromethoxy)phenoxy]-N-1,3,4-thiadiazol-2-ylbenzenesulfonamide] | 35 nM |
